Data reported in the NIST ThermoML archive (doi:10.1016/j.jct.2019.03.023).
Several values for one entry are separate records, joined by “and”; a condition that tells them apart may be missing. Equal entries are not always repeated. Numbers after ± are expanded uncertainties.

Assay: molar heat capacity at constant volume
Details: Fluid (supercritical or subcritical phases), Vacuum adiabatic calorimetry

CC(C)O [propan-2-ol]
Details | molar heat capacity at constant volume
452.05 K, Mass density=581.06 kg/m3 | 180.71 ± 5.4 J/K/mol
452.1 K, Mass density=581.06 kg/m3 | 178.12 ± 5.3 J/K/mol
452.15 K, Mass density=581.06 kg/m3 | 174.34 ± 5.2 J/K/mol
452.2 K, Mass density=581.06 kg/m3 | 178.36 ± 5.3 J/K/mol
452.25 K, Mass density=581.06 kg/m3 | 175.9 ± 5.3 J/K/mol
463.48 K, Mass density=329.2 kg/m3 | 270.31 ± 8.1 J/K/mol
463.58 K, Mass density=329.2 kg/m3 | 271.63 ± 8.2 J/K/mol
463.68 K, Mass density=329.2 kg/m3 | 275.36 ± 8.3 J/K/mol
463.78 K, Mass density=329.2 kg/m3 | 270.31 ± 8.1 J/K/mol
463.83 K, Mass density=329.2 kg/m3 | 274.63 ± 8.2 J/K/mol
463.97 K, Mass density=329.2 kg/m3 | 279.44 ± 8.4 J/K/mol
464.18 K, Mass density=329.2 kg/m3 | 278.72 ± 8.4 J/K/mol and 277.04 ± 8.3 J/K/mol
464.27 K, Mass density=329.2 kg/m3 | 280.16 ± 8.4 J/K/mol
464.42 K, Mass density=329.2 kg/m3 | 278.24 ± 8.4 J/K/mol
464.47 K, Mass density=329.2 kg/m3 | 275.54 ± 8.3 J/K/mol
464.97 K, Mass density=329.2 kg/m3 | 277.34 ± 8.4 J/K/mol
465.27 K, Mass density=329.2 kg/m3 | 272.77 ± 8.2 J/K/mol
465.34 K, Mass density=329.2 kg/m3 | 278.54 ± 8.4 J/K/mol
482.51 K, Mass density=329.2 kg/m3 | 288.1 ± 8.7 J/K/mol
482.6 K, Mass density=329.2 kg/m3 | 289.9 ± 8.7 J/K/mol
482.7 K, Mass density=329.2 kg/m3 | 288.46 ± 8.7 J/K/mol
482.8 K, Mass density=329.2 kg/m3 | 287.73 ± 8.7 J/K/mol
482.89 K, Mass density=329.2 kg/m3 | 288.34 ± 8.7 J/K/mol
482.99 K, Mass density=329.2 kg/m3 | 292 ± 8.8 J/K/mol
483.09 K, Mass density=329.2 kg/m3 | 287.19 ± 8.6 J/K/mol
483.18 K, Mass density=329.2 kg/m3 | 291.64 ± 8.8 J/K/mol
491.97 K, Mass density=274 kg/m3 | 317.84 ± 9.6 J/K/mol
492.07 K, Mass density=274 kg/m3 | 313.28 ± 9.4 J/K/mol
492.16 K, Mass density=274 kg/m3 | 317.9 ± 9.6 J/K/mol
492.25 K, Mass density=274 kg/m3 | 317.9 ± 9.6 J/K/mol
492.35 K, Mass density=274 kg/m3 | 322.53 ± 9.7 J/K/mol
492.44 K, Mass density=274 kg/m3 | 322.53 ± 9.7 J/K/mol
492.54 K, Mass density=274 kg/m3 | 322.59 ± 9.7 J/K/mol
492.63 K, Mass density=274 kg/m3 | 322.59 ± 9.7 J/K/mol
492.73 K, Mass density=274 kg/m3 | 318.08 ± 9.6 J/K/mol
493.86 K, Mass density=255.8 kg/m3 | 333.29 ± 10 J/K/mol
493.95 K, Mass density=255.8 kg/m3 | 333.29 ± 10 J/K/mol
494.05 K, Mass density=255.8 kg/m3 | 323.49 ± 9.7 J/K/mol
494.14 K, Mass density=255.8 kg/m3 | 338.27 ± 10 J/K/mol
494.24 K, Mass density=255.8 kg/m3 | 333.41 ± 10 J/K/mol
494.33 K, Mass density=255.8 kg/m3 | 323.61 ± 9.7 J/K/mol
494.43 K, Mass density=255.8 kg/m3 | 333.47 ± 10 J/K/mol
494.52 K, Mass density=255.8 kg/m3 | 328.54 ± 9.9 J/K/mol
494.52 K, Mass density=324.5 kg/m3 | 307.87 ± 9.3 J/K/mol
494.62 K, Mass density=324.5 kg/m3 | 303.36 ± 9.1 J/K/mol
494.71 K, Mass density=324.5 kg/m3 | 303.18 ± 9.1 J/K/mol
494.8 K, Mass density=324.5 kg/m3 | 309.79 ± 9.3 J/K/mol
494.99 K, Mass density=324.5 kg/m3 | 306.6 ± 9.2 J/K/mol
495.09 K, Mass density=324.5 kg/m3 | 314.12 ± 9.4 J/K/mol
495.27 K, Mass density=324.5 kg/m3 | 308.05 ± 9.3 J/K/mol
495.37 K, Mass density=324.5 kg/m3 | 311.05 ± 9.3 J/K/mol
495.46 K, Mass density=324.5 kg/m3 | 303.36 ± 9.1 J/K/mol
495.56 K, Mass density=324.5 kg/m3 | 314.96 ± 9.4 J/K/mol
499.41 K, Mass density=274 kg/m3 | 329.44 ± 9.9 J/K/mol
499.5 K, Mass density=274 kg/m3 | 338.64 ± 10 J/K/mol
499.6 K, Mass density=274 kg/m3 | 334.07 ± 10 J/K/mol
499.69 K, Mass density=274 kg/m3 | 338.7 ± 10 J/K/mol
499.79 K, Mass density=274 kg/m3 | 334.13 ± 10 J/K/mol
499.88 K, Mass density=274 kg/m3 | 338.76 ± 10 J/K/mol
499.97 K, Mass density=274 kg/m3 | 338.82 ± 10 J/K/mol
500.07 K, Mass density=274 kg/m3 | 338.82 ± 10 J/K/mol
500.16 K, Mass density=274 kg/m3 | 334.25 ± 10 J/K/mol
500.25 K, Mass density=255.8 kg/m3 | 348.07 ± 10 J/K/mol
500.35 K, Mass density=255.8 kg/m3 | 343.74 ± 10 J/K/mol
500.44 K, Mass density=255.8 kg/m3 | 348.67 ± 10 J/K/mol
500.54 K, Mass density=255.8 kg/m3 | 348.73 ± 10 J/K/mol
500.63 K, Mass density=255.8 kg/m3 | 345.79 ± 10 J/K/mol
500.72 K, Mass density=255.8 kg/m3 | 348.79 ± 10 J/K/mol
500.82 K, Mass density=255.8 kg/m3 | 338.94 ± 10 J/K/mol
500.85 K, Mass density=329.2 kg/m3 | 318.14 ± 9.6 J/K/mol
500.91 K, Mass density=255.8 kg/m3 | 346.15 ± 10 J/K/mol
500.95 K, Mass density=329.2 kg/m3 | 311.35 ± 9.4 J/K/mol
501 K, Mass density=281.9 kg/m3 | 333.77 ± 10 J/K/mol
501.04 K, Mass density=329.2 kg/m3 | 310.87 ± 9.3 J/K/mol
501.09 K, Mass density=281.9 kg/m3 | 334.85 ± 10 J/K/mol
501.1 K, Mass density=281.9 kg/m3 | 338.09 ± 10 J/K/mol
501.14 K, Mass density=329.2 kg/m3 | 313.94 ± 9.4 J/K/mol
501.23 K, Mass density=329.2 kg/m3 | 314.06 ± 9.4 J/K/mol
501.29 K, Mass density=281.9 kg/m3 | 337.01 ± 10 J/K/mol
501.33 K, Mass density=329.2 kg/m3 | 310.75 ± 9.3 J/K/mol
501.38 K, Mass density=281.9 kg/m3 | 335.39 ± 10 J/K/mol
501.42 K, Mass density=329.2 kg/m3 | 316.76 ± 9.5 J/K/mol
501.47 K, Mass density=281.9 kg/m3 | 337.49 ± 10 J/K/mol
501.53 K, Mass density=329.2 kg/m3 | 318.08 ± 9.6 J/K/mol
501.57 K, Mass density=281.9 kg/m3 | 336.95 ± 10 J/K/mol
501.62 K, Mass density=329.2 kg/m3 | 320.49 ± 9.6 J/K/mol
501.66 K, Mass density=281.9 kg/m3 | 338.58 ± 10 J/K/mol
501.75 K, Mass density=281.9 kg/m3 | 331 ± 9.9 J/K/mol
501.81 K, Mass density=329.2 kg/m3 | 316.64 ± 9.5 J/K/mol
501.85 K, Mass density=343.1 kg/m3 | 312.61 ± 9.4 J/K/mol
501.9 K, Mass density=329.2 kg/m3 | 317.06 ± 9.5 J/K/mol
501.94 K, Mass density=266.3 kg/m3 | 345.85 ± 10 J/K/mol
